Earlier results in patent publication US20170065526A1, “SOLID DOSAGE FORM OF RIVAROXABAN AND METHODS FOR MAKING THE SAME” (priority 2015, published 2017).
≈ marks a conversion by molar mass, not a printed value.

Details: relatively poor solubility, background statement

solubility: ~7 µg/mL (≈ 16.1 µM)
SMILES: O=C(NC[C@H]1CN(c2ccc(N3CCOCC3=O)cc2)C(=O)O1)c1ccc(Cl)s1 [rivaroxaban, (S)-5-chloro-N-{[2-oxo-3-[4-(3-oxomorpholin-4-yl)phenyl]oxazolidin-5-yl]methyl}thiophene-2-carboxamide]
